Source: patent US10179761B2, “Compounds, pharmaceutical composition and their use in treating neurodegenerative diseases” (UNIVERSITE DE LILLE 2 DROIT ET SANTE, priority 2014, dated 2019)
Entries after “also recorded” stand apart in the source; their conditions may differ.

Legend:
[1] = system: Male Swiss mice; assay: Dizocilpine-induced learning deficits: spontaneous alternation in the Y-maze; format: in vivo
Method: The activity of compound 3.1.10 was evaluated on the prevention of the dizocilpine-induced learning deficits measured using two behavioral tests. The present experiment tested if its anti-amnesic activity could be blocked by pretreatment with the reference sigma-1 receptor antagonist NE-100.
• Sixty (60) mice were used. Behavioral testing started one week after the arrival of the animals in the AMYLGEN animal facility. • 5 treatment groups were designed and used as follows:
• Vehicle 1 was physiological saline for dizocilpine, DMSO 2% in water for compound 3.1.10 • Animals were used at day 1 in the Y-maze test and at days 2 and 3 in the passive avoidance test, with training at day 2 and retention at day 3. • Test compounds, compound 3.1.10 and/or NE-100 were administered 10 min before dizocilpine (at 0.15 mg/kg i.p.) or vehicle. • Dizocilpine or vehicle 1 was administered 20 min before the Y-maze test session on day 1. • Dizocilpine or vehicle 1 was administered 20 min before the passive avoidance training session on day 2. Drugs were not injected before the retention session on day 3. • The whole experiment program was performed in a single serie experiment. • Treatments were randomized. 2.1.2. Animals
Male Swiss mice, 6 weeks old and weighing 30-35 g, from JANVIER (Saint Berthevin, France), were housed in groups with access to food and water ad libitum, except during experiments. They were kept in a temperature and humidity controlled animal facility on a 12 h/12 h light:dark cycle (lights on at 7:00 am). […]
Animals were tested for spontaneous alternation performance in the Y-maze, an index of spatial working memory. […] The number of maximum alternations was therefore the total number of arm entries minus two and the percentage of alternation was calculated as: (actual alternations/maximum alternations)×100. […]
All values, except passive avoidance latencies, were expressed as mean±S.E.M. Statistical analyses were performed using two-way ANOVA (F value), with genotype and peptide treatment as independent factors, followed by a Dunn's post-hoc multiple comparison test.

[2] = system: SJL/J mice; assay: EAE model, curative treatment; format: in vivo; conditions: p.o. from onset of EAE (grade 2) for 14 days, 0.5 or 1 mg/kg; followed 70 days; FIG. 4
From the text: (§1) Animals. SJL/J mice were purchased from Janvier (Le Genest-St-Isle, France) and bred under conventional barrier protection at the Pasteur Institute (Lille, France). All experiment protocols and procedures were in compliance with the European Communities Council Directives of 24 Nov. 1986 (86/609/EEC) and were approved by the local ethical committee (CEEA 102009R). Efforts were made to minimize the number of animals used and their suffering. Animals that reached severe hind limb paresis (clinical grade 3) were isolated, and hydration and food access were facilitated.
(§2) EAE induction and treatment. The method of EAE induction was similar to previously published methods (Lee-Chang et al., Immunol Lett. 2011 Mar. 30; 135(1-2):108-17). […]
(§3) Body weight and clinical signs of EAE were monitored daily. The severity of clinical symptoms was scored based on a standard neurological scoring system for EAE, as follows: grade 0, no disease; grade 1, moderate tail hypotonia and/or slight clumsy gait; grade 2, tail atony and/or clumsy gait; grade 3, severe hind limb paresis; grade 4, paraplegia; grade 5, tetraplegia. […]

[3] = target: σ1 receptors (Homo sapiens (Human), UniProt Q99720); assay: σ1 binding assay, Jurkat cell membranes, [3H](+)-pentazocine; conditions: hydrochloride salts; mean of 2 or 3 independent experiments; Ki from IC50 (Cheng-Prusoff); read-out: Sigma 1 Ki
Chain of σ1 receptors (Q99720 whole entry): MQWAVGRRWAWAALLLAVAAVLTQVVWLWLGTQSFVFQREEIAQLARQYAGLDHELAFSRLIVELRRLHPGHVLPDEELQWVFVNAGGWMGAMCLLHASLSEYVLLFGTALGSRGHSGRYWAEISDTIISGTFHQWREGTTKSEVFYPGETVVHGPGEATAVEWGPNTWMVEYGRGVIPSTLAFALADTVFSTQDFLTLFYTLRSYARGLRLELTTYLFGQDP

[4] = system: SJL/J mice; assay: EAE model, preventive treatment; format: in vivo; conditions: single i.p. injection on day 0, 0.5 or 1 mg/kg; FIG. 3
From the text: as §1, §2, §3

With CN(CCCNC(=O)c1ccc(Cl)cc1)Cc1ccccc1 [Compound 3.1.10, N-[3-(benzylmethylamino)propyl]-4-chlorobenzamide] the “dizocilpine-induced learning deficits, Y-maze test” value ([1]; 0.5 mg/kg i.p., 10 min before dizocilpine 0.15 mg/kg i.p.) was “significantly attenuated”, the “beneficial effect of compound 3.1.10 with NE-100, Y-maze test” value ([1]; 3.1.10 0.5 mg/kg + NE-100 3 mg/kg + dizocilpine 0.15 mg/kg i.p.) was “prevented by treatment with the sigma-1 antagonist NE-100” and the “EAE clinical course, curative treatment” value [2] was “Amelioration of EAE; also recorded: alleviating the symptoms of EAE”. For the same molecule, the Ki [3] was 3.2 nM and the “EAE clinical course, preventive treatment” value [4] was “Amelioration of EAE; also recorded: delaying the onset of EAE”.
